For 9 molecules, remaining activity and Ki results are on record in article PMC9282634, “High-Throughput Crystallography Reveals Boron-Containing Inhibitors of a Penicillin-Binding Protein with Di- and Tricovalent Binding Modes” (Journal of Medicinal Chemistry, 2021).

Read-outs that look alike come from different tables or passages of the source.

Usually Ki stands for the dissociation constant of the complex between target and ligand, obtained from inhibition or displacement. Low values mean a stronger hold on the target, high ones a looser hold on the target.

The target of experiment [1] is T1, PBP3 (PaPBP3) (Pseudomonas aeruginosa, UniProt G3XD46).
T1 construct: gene ftsI; residues 50–579
T1 sequence (G3XD46 50-579): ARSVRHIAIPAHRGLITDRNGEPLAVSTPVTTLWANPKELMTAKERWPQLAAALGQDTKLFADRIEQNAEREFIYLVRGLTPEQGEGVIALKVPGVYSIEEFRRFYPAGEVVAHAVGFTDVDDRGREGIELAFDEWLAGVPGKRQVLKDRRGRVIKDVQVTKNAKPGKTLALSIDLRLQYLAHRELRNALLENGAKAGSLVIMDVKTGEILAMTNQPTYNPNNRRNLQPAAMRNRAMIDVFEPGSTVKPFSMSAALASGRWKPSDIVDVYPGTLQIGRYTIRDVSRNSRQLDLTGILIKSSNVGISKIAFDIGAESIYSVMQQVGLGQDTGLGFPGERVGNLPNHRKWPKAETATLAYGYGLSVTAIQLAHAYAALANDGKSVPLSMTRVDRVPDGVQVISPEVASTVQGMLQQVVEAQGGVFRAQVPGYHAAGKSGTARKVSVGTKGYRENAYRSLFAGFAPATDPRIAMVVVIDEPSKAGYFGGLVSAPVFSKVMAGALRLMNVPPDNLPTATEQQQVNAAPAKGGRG
Put plainly: biochemical. As to conditions: read-out: Residual Activity by BOCILLIN FL FA (%). Set-up: BOCILLIN FL fluorescence anisotropy, residual PBP3 binding after 1 h pre-incubation with compound. The procedure: Unless otherwise stated, assays were run in triplicate using a 60 nM purified protein (see above), 30 nM BOCILLIN FL in pH 7 100 mM sodium phosphate buffer, with 0.01% Triton to reduce promiscuous ligand binding[23] and reduce binding of the protein to the plate. Assays were run in triplicate in a volume of 50 μL, in black, flat-bottom, 384-well microplates (Grenier Bio-One, Austria) at 30 °C. The change in FA was measured using a ClarioStar plate reader (BMG Labtech) with polarized filters at excitation: 482–16, emission: F: 530–4, and calculated using MARS software v3.32 (BMG Labtech) using the equation [drawing 1] where Fpara is the fluorescence intensity parallel to the excitation plane and Fperp is fluorescence intensity perpendicular to the excitation plane. Residual activities were determined by pre-incubating the test compound (1024 μM) and protein for 1 h at 30 °C before the reaction was initiated by the addition of BOCILLIN FL. The change in FA after 30 min was compared to the uninhibited control to determine the residual activity. In order to calculate Ki, the compound (at 11 concentrations: 1–1024 μM) and BOCILLIN FL were mixed and the reaction was initiated by the addition of PBP. Also included in the model were progress curves of nine concentrations of PBP (40–110 nM). Inhibition plots with meropenem and ceftazidime were done to ensure the correct parameters for BOCILLIN FL binding were used. Progress curves were analyzed with KinTek, USA, as described;[52],[69] reported errors represent the standard error. The acylation of a PBP by BOCILLIN FL (Figure S1) can be described by a simple one-step model.[52] However, unlike the previous studies, we found it was necessary to include a term (k2) to account for the deacylation of BOCILLIN FL to release a hydrolyzed product (Figure S1). The fluorescence intensity was constant throughout the reaction. Inhibitor binding was modeled as a reversible reaction to form the enzyme–inhibitor complex (Figure S1). Ki was calculated as the ratio of the off-rate koff to the on-rate kon (Figure S1). Table 1 Residual Activities and Kis of Compounds Tested in the BOCILLIN FL Competition Assay for Binding to PaPBP3 and Residual Activities Measured in S2d Turnover Assays ^a a For both BOCILLIN FL FA and S2d assays, residual activities in the presence of a 1 mM inhibitor are a percentage of the activity of the untreated control. Errors are standard errors (n = 3) from independent measurements. b Residual activity measured at 100 μM due to solubility issues at 1 mM. Ki, calculated with 11 concentrations of each compound and determined using global fitting in Kintek Global Explorer.[52],[59]

In experiment [2] the target is T1, PBP3 (PaPBP3). The experiment can be described thus: biochemical. Details: S2d thioester turnover with DTNB, absorbance 412 nm, residual activity after 1 h pre-incubation. As to conditions: read-out: Residual Activity by S2d Turnover (%). The procedure:
Residual activities were measured by the ability of a potential inhibitor to hinder hydrolysis of the substrate analogue S2d (2-((benzoyl-D-alanyl)thio)acetic acid) turnover by PaPBP3 as described for other PBPs.[4],[24],[53],[54] Assays were conducted in 50 μL in a 384-well, clear-bottom, black-walled microplate (Greiner Bio-One). PaPBP3 (400 nM) was incubated with 2 mM of each compound for 1 h at 30 °C in 100 mM sodium phosphate, pH 7, supplemented with 0.01% (v/v) triton. A solution of 5,5′-dithiobis-(2-nitrobenzoic acid) and S2d diluted in the same buffer (to give a final concentration in the assay of 1 mM for both reagents) was added to each well to initiate the reaction. The final concentration of protein was 200 nM and the final inhibitor concentration was 1 mM. A ClarioStar plate reader (BMG Labtech) was used to follow the reaction by observing the change in absorbance at 412 nm at 30 °C. […] The initial rate of S2d turnover was calculated using GraphPad prism (Prism 8 for macOS, GraphPad Software LLC) and the standard error calculated from three independent technical replicates. The rate of non-enzymatic S2d hydrolysis was subtracted from each rate to find the corrected rate. For each compound, the ratio of the corrected rate to the untreated control corrected rate was expressed as a percentage to give the residual activity. [drawing 2] Table 1 Residual Activities and Kis of Compounds Tested in the BOCILLIN FL Competition Assay for Binding to PaPBP3 and Residual Activities Measured in S2d Turnover Assays ^a a For both BOCILLIN FL FA and S2d assays, residual activities in the presence of a 1 mM inhibitor are a percentage of the activity of the untreated control. Errors are standard errors (n = 3) from independent measurements. b Residual activity measured at 100 μM due to solubility issues at 1 mM. Ki, calculated with 11 concentrations of each compound and determined using global fitting in Kintek Global Explorer.[52],[59]

Experiment [3] has as its target T1, PBP3 (PaPBP3). The experiment can be described thus: crystal structure; BOCILLIN FL fluorescence anisotropy competition (Ki). In kind it is biochemical. For orientation: Polarisation of emitted light reports the rotation of a fluorescent probe.
For experiment [4], the target named is T1, PBP3 (PaPBP3). Put plainly: biochemical. Details: BOCILLIN FL competition fluorescence anisotropy, progress curves globally fitted in KinTek to reversible one-step model. Particulars: BOCILLIN FL competition. The protocol:
Unless otherwise stated, assays were run in triplicate using a 60 nM purified protein (see above), 30 nM BOCILLIN FL in pH 7 100 mM sodium phosphate buffer, with 0.01% Triton to reduce promiscuous ligand binding[23] and reduce binding of the protein to the plate. Assays were run in triplicate in a volume of 50 μL, in black, flat-bottom, 384-well microplates (Grenier Bio-One, Austria) at 30 °C. The change in FA was measured using a ClarioStar plate reader (BMG Labtech) with polarized filters at excitation: 482–16, emission: F: 530–4, and calculated using MARS software v3.32 (BMG Labtech) using the equation [drawing 1] where Fpara is the fluorescence intensity parallel to the excitation plane and Fperp is fluorescence intensity perpendicular to the excitation plane. Residual activities were determined by pre-incubating the test compound (1024 μM) and protein for 1 h at 30 °C before the reaction was initiated by the addition of BOCILLIN FL. […] Progress curves were analyzed with KinTek, USA, as described;[52],[69] reported errors represent the standard error. […] The fluorescence intensity was constant throughout the reaction. […] Ki was calculated as the ratio of the off-rate koff to the on-rate kon (Figure S1). 1–15 were screened for PaPBP3 inhibition at 1 mM using an established fluorescence anisotropy (FA) assay.[52] […]

On to `O=C(O)c1ccc2c(c1)B(O)OC2` [compound 3], for which the remaining activity at 1000 µM is 75 ± 1% at PBP3 (PaPBP3) [1] and 57.8 ± 0.6% at PBP3 (PaPBP3) [2].
With `CNC(=O)CNC(=O)c1ccc2c(c1)B(O)OC2` [compound 5], the remaining activity at 1000 µM at PBP3 (PaPBP3) [1] and at PBP3 (PaPBP3) [2] was > 90% each time.
Regarding `NC(=O)[C@@H](Cc1ccccc1)NC(=O)c1ccc2c(c1)B(O)OC2` [compound 6], the remaining activity at 1000 µM on PBP3 (PaPBP3) [1] and on PBP3 (PaPBP3) [2] was > 90% each time.
For `COC(=O)[C@H](NC(=O)c1ccc2c(c1)B(O)OC2)c1ccccc1` [compound 7], the remaining activity at 1000 µM at PBP3 (PaPBP3) [1] and on PBP3 (PaPBP3) [2] was > 90% throughout.
On to `O=C1CN(C(=O)[C@@H](Cc2ccccc2)NC(=O)c2ccc3c(c2)B(O)OC3)CCN1` [compound 11], for which the remaining activity at 1000 µM on PBP3 (PaPBP3) [1] is 84 ± 1%; at PBP3 (PaPBP3) [2], 80.9 ± 1.3%.
Molecule `NC(=O)[C@H](NC(=O)c1ccc2c(c1)B(O)OC2CC(=O)O)c1ccccc1` (some centres unmarked) [compound 12, 12] came in with an inhibition constant (Ki) at PBP3 (PaPBP3) [3] of 73.9 ± 0.8 µM. The results for the remaining activity at 1000 µM on PBP3 (PaPBP3) [1] and on PBP3 (PaPBP3) [2] were 16 ± 6% and 19.6 ± 0.4%, respectively.
As for `CN1CCN(C(=O)CNC(=O)c2ccc3c(c2)B(O)OC3CC(=O)O)CC1=O` (centres unmarked) [compound 13, 13], the affinity at PBP3 (PaPBP3) [3] corresponds to a Ki of 172 ± 3 µM. Moreover, the remaining activity at 1000 µM on PBP3 (PaPBP3) [1] came to 42 ± 6%; at PBP3 (PaPBP3) [2], 47.5 ± 0.6%.
In the case of `O=C(O)CC1OB(O)c2ccc(OCc3ccccc3)cc21` (centres unmarked) [compound 15, 2-(5-(Benzyloxy)-1-hydroxy-1,3-dihydrobenzo[c][1,2]oxaborol-3-yl)acetic Acid], the Ki at PBP3 (PaPBP3) [3] was 78.1 ± 0.9 µM.
Take `O=C(O)C[C@@H]1CC[C@H](NC(=O)Cc2cccs2)B(O)O1` [vaborbactam]: the inhibition constant (Ki) at PBP3 (PaPBP3) [4] was 201 ± 2.3 µM. Besides, the remaining activity at 1000 µM was 54 ± 5% on PBP3 (PaPBP3) [1] and 75.8 ± 0.7% on PBP3 (PaPBP3) [2].
